Test results: paper PMC3415323 (International Journal of Nanomedicine, 2012)

Molecular target: p-gp (Homo sapiens, UniProt P08183)
Assay: Effect of p-gp inhibitors on cellular transport of HSYA solution
Type: in vitro ADME
Details: Figure 5A

Sequence of p-gp (P08183 whole entry): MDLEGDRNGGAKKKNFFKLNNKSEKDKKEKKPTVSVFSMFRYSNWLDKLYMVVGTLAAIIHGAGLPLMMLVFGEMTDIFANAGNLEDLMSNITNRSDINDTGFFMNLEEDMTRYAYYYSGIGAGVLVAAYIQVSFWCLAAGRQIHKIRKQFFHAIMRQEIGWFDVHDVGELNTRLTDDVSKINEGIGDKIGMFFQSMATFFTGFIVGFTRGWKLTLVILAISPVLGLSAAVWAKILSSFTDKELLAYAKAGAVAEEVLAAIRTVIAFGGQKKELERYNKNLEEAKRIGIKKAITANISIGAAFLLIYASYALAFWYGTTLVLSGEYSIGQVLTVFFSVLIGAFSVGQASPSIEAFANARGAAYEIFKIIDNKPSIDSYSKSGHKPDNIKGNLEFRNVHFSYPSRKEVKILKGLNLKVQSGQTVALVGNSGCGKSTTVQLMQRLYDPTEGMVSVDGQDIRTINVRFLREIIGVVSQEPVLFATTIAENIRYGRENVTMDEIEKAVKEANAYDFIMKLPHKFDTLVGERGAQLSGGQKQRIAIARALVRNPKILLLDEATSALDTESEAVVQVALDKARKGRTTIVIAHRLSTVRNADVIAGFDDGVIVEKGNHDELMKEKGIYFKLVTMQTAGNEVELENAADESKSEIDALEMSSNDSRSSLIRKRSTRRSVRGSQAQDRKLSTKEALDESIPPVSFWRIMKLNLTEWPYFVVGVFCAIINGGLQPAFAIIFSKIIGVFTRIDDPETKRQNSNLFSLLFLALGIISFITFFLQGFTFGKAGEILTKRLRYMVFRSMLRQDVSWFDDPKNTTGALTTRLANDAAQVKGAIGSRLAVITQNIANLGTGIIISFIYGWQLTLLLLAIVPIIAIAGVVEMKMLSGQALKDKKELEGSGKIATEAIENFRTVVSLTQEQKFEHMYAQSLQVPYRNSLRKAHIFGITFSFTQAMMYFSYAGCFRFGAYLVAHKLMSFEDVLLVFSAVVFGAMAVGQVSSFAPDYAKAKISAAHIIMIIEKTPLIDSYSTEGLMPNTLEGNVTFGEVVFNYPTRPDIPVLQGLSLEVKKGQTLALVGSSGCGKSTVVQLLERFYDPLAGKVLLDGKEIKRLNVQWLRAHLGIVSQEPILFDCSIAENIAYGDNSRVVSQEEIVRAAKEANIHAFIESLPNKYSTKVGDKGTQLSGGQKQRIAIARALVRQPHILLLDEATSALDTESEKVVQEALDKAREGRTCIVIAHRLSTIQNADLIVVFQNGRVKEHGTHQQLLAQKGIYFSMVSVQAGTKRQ

effect on the absorption of HSYA on Caco-2 cells: significantly increased
Compound: Cc1nc(C)c(C)nc1C [TMP, tetramethylpyrazine]
